Measured values: ChEMBL document CHEMBL5113400, “Design, synthesis, and biological evaluation of trizole-based heteroaromatic derivatives as Bcr-Abl kinase inhibitors” (Eur J Med Chem, 2022)

Legend:
[1] = tested on: BaF3; experiment: Antiproliferative activity against mouse BaF3 cells expressing Bcr-Abl T315I mutant assessed as inhibition of cell growth at 30 uM incubated for 72 hrs by CellTiter-Glo luminescent assay; assay type: functional
[2] = tested on: K562; experiment: Induction of apoptosis in human K562 cells assessed as early apoptotic cells at 5 uM incubated for 48 hrs by Annexin V-FITC/PI staining based flow cytometry analysis (Rvb= 4.35%); assay type: functional
[3] = molecular target: Bcr/Abl fusion protein (Homo sapiens, UniProt P00519); experiment: Inhibition of wild type Bcr-Abl (unknown origin) incubated for 1 hr in presence of ATP by ADP-Glo kinase assay; assay type: protein assay
[4] = tested on: BaF3; experiment: Antiproliferative activity against mouse BaF3 cells expressing Bcr-Abl T315I mutant assessed as inhibition of cell growth incubated for 72 hrs by CellTiter-Glo luminescent assay; assay type: functional, cell-based; details: BaF3, 72 h
[5] = molecular target: Tyrosine-protein kinase receptor UFO (Homo sapiens) (UniProt P30530); experiment: Inhibition of recombinant human AXL at 10 uM for 10 mins followed by substrate addition in presence of ATP and measured after 100 mins by ADP-Glo kinase assay; details: time 110.0 min
Tyrosine-protein kinase receptor UFO (Homo sapiens), sequence (P30530 whole entry): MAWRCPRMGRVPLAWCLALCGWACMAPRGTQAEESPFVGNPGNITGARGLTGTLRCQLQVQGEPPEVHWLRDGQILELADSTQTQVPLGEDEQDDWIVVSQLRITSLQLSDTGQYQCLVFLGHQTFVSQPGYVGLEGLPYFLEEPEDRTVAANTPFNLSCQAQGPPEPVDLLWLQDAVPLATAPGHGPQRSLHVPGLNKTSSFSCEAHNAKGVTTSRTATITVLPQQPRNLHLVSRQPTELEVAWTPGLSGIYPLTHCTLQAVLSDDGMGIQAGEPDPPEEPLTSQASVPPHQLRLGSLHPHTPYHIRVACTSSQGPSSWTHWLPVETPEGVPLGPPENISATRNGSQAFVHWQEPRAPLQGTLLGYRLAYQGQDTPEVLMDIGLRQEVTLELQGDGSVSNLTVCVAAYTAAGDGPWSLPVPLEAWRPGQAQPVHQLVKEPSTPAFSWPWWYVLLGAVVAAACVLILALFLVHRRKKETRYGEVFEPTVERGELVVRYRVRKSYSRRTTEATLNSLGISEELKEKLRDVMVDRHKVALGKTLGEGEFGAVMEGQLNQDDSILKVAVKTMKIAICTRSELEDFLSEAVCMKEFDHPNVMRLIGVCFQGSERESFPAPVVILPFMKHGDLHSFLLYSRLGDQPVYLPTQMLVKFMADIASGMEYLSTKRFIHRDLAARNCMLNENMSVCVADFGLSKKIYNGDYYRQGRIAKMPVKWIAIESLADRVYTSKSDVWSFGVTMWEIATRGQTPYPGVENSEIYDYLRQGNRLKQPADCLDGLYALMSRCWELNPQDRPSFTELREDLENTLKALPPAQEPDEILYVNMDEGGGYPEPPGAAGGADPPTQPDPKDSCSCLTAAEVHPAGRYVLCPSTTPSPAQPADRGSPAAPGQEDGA

[6] = molecular target: T1, Tyrosine-protein kinase ITK/TSK (Homo sapiens) (UniProt Q08881); experiment: Inhibition of recombinant human ITK at 10 uM for 10 mins followed by substrate addition in presence of ATP and measured after 60 mins by HTRF assay; details: time 70.0 min
T1 sequence (whole entry): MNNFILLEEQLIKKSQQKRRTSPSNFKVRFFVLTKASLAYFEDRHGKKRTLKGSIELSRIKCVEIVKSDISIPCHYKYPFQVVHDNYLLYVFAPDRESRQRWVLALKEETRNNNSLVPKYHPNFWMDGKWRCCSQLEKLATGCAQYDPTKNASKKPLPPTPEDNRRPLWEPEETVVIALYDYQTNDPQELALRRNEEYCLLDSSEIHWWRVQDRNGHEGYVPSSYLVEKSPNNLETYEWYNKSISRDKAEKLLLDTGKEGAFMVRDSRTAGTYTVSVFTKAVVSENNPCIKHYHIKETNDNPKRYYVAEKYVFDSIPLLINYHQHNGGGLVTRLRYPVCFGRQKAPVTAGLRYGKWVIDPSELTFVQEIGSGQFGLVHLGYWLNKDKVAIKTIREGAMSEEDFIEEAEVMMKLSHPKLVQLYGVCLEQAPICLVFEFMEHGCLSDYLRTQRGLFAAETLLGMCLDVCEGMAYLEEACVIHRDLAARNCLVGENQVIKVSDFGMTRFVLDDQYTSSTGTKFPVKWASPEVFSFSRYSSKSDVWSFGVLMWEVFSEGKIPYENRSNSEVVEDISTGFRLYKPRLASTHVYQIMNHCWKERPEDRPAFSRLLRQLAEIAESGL

[7] = tested on: K562; experiment: Induction of cell cycle arrest in human K562 cells assessed as accumulation at G2/M phase at 1 to 10 uM incubated for 48 hrs by PI staining based flow cytometry (Rvb= 12.23%); assay type: functional; details: dose 1-10 µM
[8] = tested on: K562; experiment: Induction of apoptosis in human K562 cells assessed as early apoptotic cells at 1 uM incubated for 48 hrs by Annexin V-FITC/PI staining based flow cytometry analysis (Rvb= 4.35%); assay type: functional
[9] = molecular target: Dual specificity protein kinase CLK1 (Homo sapiens) (UniProt P49759); experiment: Inhibition of recombinant human CLK1 at 10 uM for 10 mins followed by substrate addition in presence of ATP and measured after 100 mins by ADP-Glo kinase assay; details: time 110.0 min
Dual specificity protein kinase CLK1 (Homo sapiens), sequence (P49759 whole entry, looked up): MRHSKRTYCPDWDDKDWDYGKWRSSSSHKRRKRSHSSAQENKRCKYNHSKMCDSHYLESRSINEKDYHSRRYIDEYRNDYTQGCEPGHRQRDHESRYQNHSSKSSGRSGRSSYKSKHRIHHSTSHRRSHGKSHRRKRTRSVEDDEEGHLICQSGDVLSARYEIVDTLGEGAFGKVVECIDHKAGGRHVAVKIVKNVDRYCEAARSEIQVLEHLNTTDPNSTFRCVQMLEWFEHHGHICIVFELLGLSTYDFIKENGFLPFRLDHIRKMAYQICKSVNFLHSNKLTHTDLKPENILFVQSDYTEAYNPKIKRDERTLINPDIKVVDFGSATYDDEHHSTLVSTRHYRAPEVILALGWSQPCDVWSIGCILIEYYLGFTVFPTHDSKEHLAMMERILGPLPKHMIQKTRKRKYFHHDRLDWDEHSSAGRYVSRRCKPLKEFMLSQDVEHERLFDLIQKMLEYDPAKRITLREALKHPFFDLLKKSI

[10] = molecular target: Platelet-derived growth factor receptor alpha (Homo sapiens) (UniProt P16234); experiment: Inhibition of recombinant human PDGFRalpha at 10 uM for 10 mins followed by substrate addition in presence of ATP and measured after 60 mins by HTRF assay; details: time 70.0 min
Platelet-derived growth factor receptor alpha (Homo sapiens), sequence (P16234 whole entry): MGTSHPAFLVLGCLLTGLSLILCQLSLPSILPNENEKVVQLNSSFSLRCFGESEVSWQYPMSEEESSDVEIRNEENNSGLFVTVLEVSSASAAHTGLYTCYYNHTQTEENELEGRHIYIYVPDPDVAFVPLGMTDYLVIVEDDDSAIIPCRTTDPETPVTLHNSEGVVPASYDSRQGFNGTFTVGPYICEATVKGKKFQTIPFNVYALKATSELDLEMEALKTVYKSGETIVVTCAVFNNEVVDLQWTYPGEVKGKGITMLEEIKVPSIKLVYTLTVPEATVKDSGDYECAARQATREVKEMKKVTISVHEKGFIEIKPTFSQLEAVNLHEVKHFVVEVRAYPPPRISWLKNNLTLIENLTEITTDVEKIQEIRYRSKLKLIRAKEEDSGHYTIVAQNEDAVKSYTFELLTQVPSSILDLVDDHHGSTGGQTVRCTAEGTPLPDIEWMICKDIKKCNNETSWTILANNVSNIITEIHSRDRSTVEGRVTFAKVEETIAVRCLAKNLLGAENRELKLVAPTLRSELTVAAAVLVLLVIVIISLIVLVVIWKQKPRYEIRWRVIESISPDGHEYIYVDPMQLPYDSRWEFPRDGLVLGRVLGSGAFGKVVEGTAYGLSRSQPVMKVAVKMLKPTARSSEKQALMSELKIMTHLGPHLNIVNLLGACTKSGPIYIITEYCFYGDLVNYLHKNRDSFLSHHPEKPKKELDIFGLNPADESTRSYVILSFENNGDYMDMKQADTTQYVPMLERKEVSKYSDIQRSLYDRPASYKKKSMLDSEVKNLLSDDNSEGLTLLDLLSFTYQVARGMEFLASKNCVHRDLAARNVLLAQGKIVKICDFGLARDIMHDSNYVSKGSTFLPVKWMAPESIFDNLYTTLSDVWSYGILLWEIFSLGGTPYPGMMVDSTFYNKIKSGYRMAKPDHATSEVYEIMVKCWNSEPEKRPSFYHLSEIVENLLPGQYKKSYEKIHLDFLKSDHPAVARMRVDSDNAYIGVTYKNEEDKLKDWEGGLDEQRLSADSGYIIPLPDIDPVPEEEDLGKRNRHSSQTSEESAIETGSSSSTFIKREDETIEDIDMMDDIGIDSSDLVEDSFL

[11] = molecular target: Platelet-derived growth factor receptor alpha (Homo sapiens) (UniProt P16234); experiment: Inhibition of recombinant human PDGFRalpha at 10 uM for 10 mins followed by substrate addition in presence of ATP and measured after 100 mins by ADP-Glo kinase assay; details: time 110.0 min
[12] = molecular target: Dual specificity protein kinase CLK1 (Homo sapiens) (UniProt P49759); experiment: Inhibition of recombinant human CLK1 at 10 uM for 10 mins followed by substrate addition in presence of ATP and measured after 60 mins by HTRF assay; details: time 70.0 min
[13] = tested on: K562; experiment: Induction of apoptosis in human K562 cells assessed as late apoptotic cells at 5 uM incubated for 48 hrs by Annexin V-FITC/PI staining based flow cytometry analysis (Rvb= 14.66%); assay type: functional
[14] = tested on: K562; experiment: Induction of apoptosis in human K562 cells assessed as early apoptotic cells at 10 uM incubated for 48 hrs by Annexin V-FITC/PI staining based flow cytometry analysis (Rvb= 4.35%); assay type: functional
[15] = tested on: BaF3; experiment: Antiproliferative activity against mouse BaF3 cells expressing wild type Bcr-Abl assessed as inhibition of cell growth incubated for 72 hrs by CellTiter-Glo luminescent assay; assay type: functional, cell-based; details: BaF3, 72 h
[16] = tested on: K562; experiment: Induction of apoptosis in human K562 cells assessed as necrotic cells at 1 uM incubated for 48 hrs by Annexin V-FITC/PI staining based flow cytometry analysis (Rvb= 0.09%); assay type: functional
[17] = molecular target: Dual specificity tyrosine-phosphorylation-regulated kinase 1B (Homo sapiens) (UniProt Q9Y463); experiment: Inhibition of recombinant human DYRK1B at 10 uM for 10 mins followed by substrate addition in presence of ATP and measured after 60 mins by HTRF assay; details: time 70.0 min
Dual specificity tyrosine-phosphorylation-regulated kinase 1B (Homo sapiens), sequence (Q9Y463 whole entry, looked up): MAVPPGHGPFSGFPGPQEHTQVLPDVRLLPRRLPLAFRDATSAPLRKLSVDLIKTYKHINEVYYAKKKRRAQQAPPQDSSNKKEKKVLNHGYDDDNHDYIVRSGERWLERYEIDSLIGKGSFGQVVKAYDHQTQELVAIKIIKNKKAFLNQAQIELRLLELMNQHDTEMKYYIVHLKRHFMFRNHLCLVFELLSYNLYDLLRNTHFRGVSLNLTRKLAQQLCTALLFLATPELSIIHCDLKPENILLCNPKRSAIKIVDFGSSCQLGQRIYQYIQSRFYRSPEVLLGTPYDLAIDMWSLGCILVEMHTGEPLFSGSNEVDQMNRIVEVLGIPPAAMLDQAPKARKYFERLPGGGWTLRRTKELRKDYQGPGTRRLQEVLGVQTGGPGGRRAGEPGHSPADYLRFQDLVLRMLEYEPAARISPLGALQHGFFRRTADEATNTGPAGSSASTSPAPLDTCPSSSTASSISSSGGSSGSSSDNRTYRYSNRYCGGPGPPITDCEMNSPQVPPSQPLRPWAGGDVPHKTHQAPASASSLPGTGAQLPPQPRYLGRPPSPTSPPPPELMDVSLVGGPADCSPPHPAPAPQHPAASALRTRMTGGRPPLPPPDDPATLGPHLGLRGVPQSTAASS

[18] = molecular target: Tyrosine-protein kinase receptor UFO (Homo sapiens) (UniProt P30530); experiment: Inhibition of recombinant human AXL at 10 uM for 10 mins followed by substrate addition in presence of ATP and measured after 60 mins by HTRF assay; details: time 70.0 min
[19] = tested on: HEK293; experiment: Cytotoxicity against human HEK293 cells assessed as inhibition of cell growth upto 100 uM incubated for 48 hrs by MTT assay; assay type: toxicity, cell-based; details: hek293, 48 h
[20] = tested on: EA.hy 926; experiment: Cytotoxicity against human EA.hy 926 cells assessed as inhibition of cell growth upto 100 uM incubated for 48 hrs by MTT assay; assay type: toxicity, cell-based; details: ea.hy 926, 48 h
[21] = tested on: K562; experiment: Induction of apoptosis in human K562 cells assessed as late apoptotic cells at 10 uM incubated for 48 hrs by Annexin V-FITC/PI staining based flow cytometry analysis (Rvb= 14.66%); assay type: functional
[22] = molecular target: BDNF/NT-3 growth factors receptor (Homo sapiens) (UniProt Q16620); experiment: Inhibition of recombinant human TRKB at 10 uM for 10 mins followed by substrate addition in presence of ATP and measured after 60 mins by HTRF assay; details: time 70.0 min
BDNF/NT-3 growth factors receptor (Homo sapiens), sequence (Q16620 32-822 limits assumed): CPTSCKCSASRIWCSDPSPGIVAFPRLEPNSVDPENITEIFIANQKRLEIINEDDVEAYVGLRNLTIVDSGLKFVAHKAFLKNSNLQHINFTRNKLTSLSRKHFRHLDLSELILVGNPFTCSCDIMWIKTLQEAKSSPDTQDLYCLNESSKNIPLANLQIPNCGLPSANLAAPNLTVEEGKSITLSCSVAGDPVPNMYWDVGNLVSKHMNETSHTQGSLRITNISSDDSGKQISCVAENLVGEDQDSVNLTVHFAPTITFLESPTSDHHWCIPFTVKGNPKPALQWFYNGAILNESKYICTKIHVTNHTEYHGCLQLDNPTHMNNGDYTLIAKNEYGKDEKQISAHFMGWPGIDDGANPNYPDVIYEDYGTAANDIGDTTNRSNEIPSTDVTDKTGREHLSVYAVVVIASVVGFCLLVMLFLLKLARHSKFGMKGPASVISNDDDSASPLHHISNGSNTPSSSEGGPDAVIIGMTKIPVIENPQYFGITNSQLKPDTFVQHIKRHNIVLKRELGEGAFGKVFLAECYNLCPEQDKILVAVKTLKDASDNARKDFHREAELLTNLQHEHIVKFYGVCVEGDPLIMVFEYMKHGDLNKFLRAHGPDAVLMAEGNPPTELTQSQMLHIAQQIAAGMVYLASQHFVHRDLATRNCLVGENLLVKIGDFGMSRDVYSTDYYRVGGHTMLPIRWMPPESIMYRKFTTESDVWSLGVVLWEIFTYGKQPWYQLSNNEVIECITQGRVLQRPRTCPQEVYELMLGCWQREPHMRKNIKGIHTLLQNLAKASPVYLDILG

[23] = molecular target: BDNF/NT-3 growth factors receptor (Homo sapiens) (UniProt Q16620); experiment: Inhibition of recombinant human TRKB at 10 uM for 10 mins followed by substrate addition in presence of ATP and measured after 100 mins by ADP-Glo kinase assay; details: time 110.0 min
[24] = tested on: K562/Adr; experiment: Antiproliferative activity against human Adriamycin-resistant K562/Adr cells assessed as inhibition of cell growth incubated for 48 hrs by MTT assay; assay type: functional, cell-based
[25] = tested on: K562; experiment: Antiproliferative activity against human K562 cells assessed as inhibition of cell growth incubated for 48 hrs by MTT assay; assay type: functional, cell-based; details: K562, 48 h
[26] = tested on: K-562R; experiment: Antiproliferative activity against human K-562R cells expressing Bcr-Abl T315I mutant assessed as inhibition of cell growth incubated for 48 hrs by MTT assay; assay type: functional, cell-based
[27] = tested on: BaF3; experiment: Antiproliferative activity against mouse BaF3 cells assessed as inhibition of cell growth incubated for 72 hrs by CellTiter-Glo luminescent assay; assay type: functional, cell-based; details: BaF3, 72 h

For `O=C(Nc1nc2ccc(-c3cn([C@@H]4CN[C@H](C(=O)Nc5ccc(Cl)cc5Cl)C4)nn3)nc2s1)C1CC1`, the inhibition at 30 µM [1] was 87.6%, the Activity [2] was 4.85% and the IC50 [3] was 0.6 nM. For the same molecule, the IC50 [4] was 672 nM, the inhibition [5] was 56.4% and the inhibition [6] was 41.1%. For the same molecule, the Activity [7] was 37.12%, the Activity [8] was 3.59% and the inhibition [9] was 44.2%. For the same molecule, the inhibition [10] was 87.9%, the inhibition [11] was 87.9% and the inhibition [12] was 44.2%. The Activity [13] was 29.63%, the Activity [14] was 7.16% and the IC50 [15] was 130 nM. It also gave an Activity [16] of 0.06%, an inhibition [17] of 68.4% and an inhibition [18] of 56.4%. The Activity [19] was “Non-Toxic”, the Activity [20] was “Non-Toxic” and the Activity [21] was 43.12%. It also gave an inhibition [22] of 54.3%, an inhibition [23] of 54.3% and an IC50 [24] of 2440 nM. For the same molecule, the IC50 [25] was 740 nM, the IC50 [26] was 1910 nM and the IC50 [27] was over 20000 nM.
